Marks after values point to notes of the source that are not given here.
Experiments:
[1] = system: Transformed Agrobacterium (glyphosate-resistant rigid ryegrass EPSPS); assay: Growth in M-9 media with glyphosate, transformed with resistant EPSPS; format: cell-based, Agrobacterium tumefaciens; conditions: 48 hours
Method: The level of glyphosate resistance is assayed from resistant rigid ryegrass EPSPS-expressing Agrobacterium that are transformed with a DNA construct encoding the resistant EPSPS enzyme (SEQ. ID. NO. 16).
An EPSPS gene (SEQ. ID. NO. 15) is obtained from glyphosate resistant rigid ryegrass. The EPSPS gene is ligated with the binary vector pFGC5941, a 11406 bp construct with kanamycin resistant gene, BAR gene as a selectable marker, and 35S Promoter. The ligation is cloned in pGEM vector and grown in LB broth. The plasmid from cloned pGEM is confirmed for the inserted EPSPS gene by PCR.
The confirmed plasmid is transformed into Agrobacterium tumefaciens by “freeze thaw technique” using liquid nitrogen. The transformed Agrobacterium is grown in LB plated and maintained 28° C. for 72 h. Some colonies are grown in LB broth for 24 h and tested for the inserted EPSPS gene by PCR. The confirmed Agrobacterium is grown in 50 mL LB broth for 24 h. The Agrobacterium is centrifuged at 5000×g for 10 min, and the pellets are diluted with 2 mL 1.0 M CaCl2. At the same time, a wild-type Agrobacterium is also grown and extracted similar to the transformed Agrobacterium. The Agrobacterium solutions (10 μL) are grown in 50 mL media containing 1×M-9 salt media (SIGMA), 20 mM glucose, 2 mM MgSO4, and glyphosate at 0, 0.25, 0.5, 0.75, 1.0, 1.5, and 2 mM.
The growth (indicated by Optical Density 600 nm) is measured after 48 hours.

[2] = system: EPSPS from R and S biotypes of rigid ryegrass; assay: EPSPS activity assay in the presence of glyphosate; format: biochemical, Lolium rigidum; conditions: glyphosate from 5 to 5000 µM; crown tissue extract; R versus S biotype
Method: Extraction methods for EPSPS are modified from methods discussed in Boerboom et al., Weed Sci. 38:463-467 (1990). Crown tissue (0.5 gram fresh weight per sample) is harvested from California rigid ryegrass plants, frozen in liquid nitrogen, and grounded in a cold mortar with 150 mg polyvinylpolypyrrolidone (PVPP). The fine powder tissue is ground further in 0.5 ml extraction buffer (pH 7.5) containing 10 mM Trizma HC1, 1 mM ethylenediaminetetraacetic acid (EDTA), 10% (v/v) glycerol, 1 mg ml^−1 bovine serum albumin (BSA), 10 mM ascorbate, 1 mM benzamidine (BAM), and 5 mM dithiothreitol (DTT). The mixture is centrifuged at 15,000×g for 10 min, and the supernatant is desalted in 1.0 ml Sephadex G-50 column (^7 MICRO-SPINS® Shephadex G-50 column, Life Science Products Inc., Frederick, Colo.) and further centrifuged at 1,000×g for 3 min. Total protein in the supernatant is quantified spectrometrically at 595 nm followed the method discussed in Bradford, Anal. Biochem 72:248-254 (1976).
Assay of EPSPS activity is modified from methods discussed in Westwood and Weller, Weed Sci. 45:2-11 (1997). […]
Data from duplicate experiments with three replications of each treatment are analyzed by non-linear regression and fitted to a log-logistic model, […]

[3] = system: S biotype of the California rigid ryegrass; assay: Glyphosate drops on leaves, susceptible biotype; format: in vivo, Lolium rigidum; conditions: three 2 µl drops on two leaves, corresponds to 1.12 kg ai ha^-1; one week after treatment; ROUNDUP ULTRA (isopropylamine salt)
Method: (§1) Rigid ryegrass (Lolium rigidum Gaud.) plants are collected from an almond orchard intensively treated with glyphosate since 1984. The collected plants are grown and seed produced in greenhouse. The resistant, intermediate and susceptible biotypes are selected in the first generation using 1.12, 2.24, and 3.36 kg ai ha^−1 rates of glyphosate. Further selection is continued with a high glyphosate rate (8.96 kg ai ha^−1) to select for the resistant and with the low rate (0.28 kg ai ha^−1) to select for the susceptible individuals. The resistant (R) and susceptible (S) biotypes used in this example are generated from the 5th and 4th cycle, respectively.
R and S biotypes of the California rigid ryegrass are grown individually to the fully vegetatively mature stage prior to seedhead formation. In one experiment, two fully mature leaves of each plant (one R and one S biotypes) are treated with three 2 μl drops of glyphosate (glyphosate isopropylamine salt, ROUNDUP ULTRA™, Monsanto Co., St. Louis, Mo.) solution applied to the upper leaf surface. This corresponds to a field rate of 1.12 kg ai ha^−1 glyphosate at a volume of 187 L ha^−1 and pressure of 172.5 kPa. One week after treatment, the S biotype is dead, but no injury is observed on the R biotype.

[4] = system: first generation of rigid ryegrass (Lolium rigidum) collected from California; assay: Glyphosate resistance and sensitivity of the first generation; format: in vivo; conditions: for Survivors: means of two experiments with 90 plants
Method: as §1
The collected plants produced seeds in the greenhouse after 8 to 10 weeks. The seeds are designated as the first generation, harvested and replanted for glyphosate resistant evaluation. The percentages of survivors are 89, 59, 45, and 9 percent following glyphosate application at 1×, 2×, 4× and 8×, respectively, is shown in Table 2.

[5] = glyphosate 1.12 kg ai ha^-1 (1x)
[6] = glyphosate 2.24 kg ai ha^-1 (2x)
[7] = glyphosate 4.48 kg ai ha^-1 (4x)
[8] = glyphosate 8.96 kg ai ha^-1 (8x)

O=C(O)CNCP(=O)(O)O [glyphosate, N-(phosphonomethyl) glycine]
Growth, OD 600 nm ([1]; glyphosate 0.25 mM): 0.632
Growth, Percent ([1]; glyphosate 0.25 mM): 98%
Growth, OD 600 nm ([1]; glyphosate 0.50 mM): 0.185
Growth, Percent ([1]; glyphosate 0.50 mM): 29%
Growth, OD 600 nm ([1]; glyphosate 0.75 mM): 0.097
Growth, Percent ([1]; glyphosate 0.75 mM): 15%
Growth, OD 600 nm ([1]; glyphosate 1.00 mM): 0.025
Growth, Percent ([1]; glyphosate 1.00 mM): 4%
Growth, OD 600 nm ([1]; glyphosate 1.50 mM): 0.024
Growth, Percent ([1]; glyphosate 1.50 mM): 4%
Growth, OD 600 nm ([1]; glyphosate 2.00 mM): 0.02
Growth, Percent ([1]; glyphosate 2.00 mM): 3%
inhibition of EPSPS activity [2]: significantly inhibited more in S than in R
Plant injury [3]: dead
Dead plants [4, 5]: 11^c percent
Survivors [4, 5]: 89%
Dead plants [4, 6]: 41%
Survivors [4, 6]: 59%
Dead plants [4, 7]: 55%
Survivors [4, 7]: 45%
Dead plants [4, 8]: 91%
Survivors [4, 8]: 9%
Survivors ([4]; glyphosate 8.96 kg ai ha^-1 (8x), listed as Glyphosate): 9^b percent
